Tests used:
Type in all cases: in vivo
[1] = tested on: foxtail, giant (giant foxtail, Setaria faberii); assay: Test A pre-/postemergence: foxtail, giant
Procedure, shortened: (§1)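 Soil medium was loam blended with sand; treatments pre- and postemergence were applied concurrently, postemergence at one- to two-leaf stage. Approximately ten days in greenhouse preceded visual comparison with untreated controls, scored 0 (no effect) to 100 (complete control).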

[2] = tested on: wheat (Triticum aestivum); assay: Test A pre-/postemergence: wheat
Procedure, shortened: as §1

[3] = tested on: ducksalad (Heteranthera limosa); assay: Test B flooded paddy: ducksalad; conditions: Flood, applied to paddy water at 2-leaf stage, visually evaluated after 13 to 15 days
Procedure, shortened: (§2)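 Plants were grown to the 2-leaf stage, then pots were flooded to 3 cm above the soil and compounds were applied directly into the paddy water. Water depth was held for the whole test; after 13 to 15 days in a greenhouse, injury was visually rated against untreated controls (0 = no effect, 100 = complete control).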

[4] = tested on: pigweed (Amaranthus retroflexus); assay: Test A pre-/postemergence: pigweed
Procedure, shortened: as §1

[5] = tested on: crabgrass, large (large crabgrass, Digitaria sanguinalis); assay: Test A pre-/postemergence: crabgrass, large
Procedure, shortened: as §1

[6] = tested on: velvetleaf (Abutilon theophrasti); assay: Test A pre-/postemergence: velvetleaf
Procedure, shortened: as §1

[7] = tested on: corn (Zea mays); assay: Test A pre-/postemergence: corn
Procedure, shortened: as §1

[8] = tested on: rice (Oryza sativa); assay: Test B flooded paddy: rice; conditions: Flood, applied to paddy water at 2-leaf stage, visually evaluated after 13 to 15 days
Procedure, shortened: as §2

[9] = tested on: barnyardgrass (Echinochloa crus-galli); assay: Test A pre-/postemergence: barnyardgrass
Procedure, shortened: as §1

[10] = tested on: morningglory (Ipomoea spp.); assay: Test A pre-/postemergence: morningglory
Procedure, shortened: as §1

[11] = tested on: sedge, umbrella (small-flower umbrella sedge Cyperus difformis); assay: Test B flooded paddy: sedge, umbrella; conditions: Flood, applied to paddy water at 2-leaf stage, visually evaluated after 13 to 15 days
Procedure, shortened: as §2

[12] = tested on: barnyardgrass (Echinochloa crus-galli); assay: Test B flooded paddy: barnyardgrass; conditions: Flood, applied to paddy water at 2-leaf stage, visually evaluated after 13 to 15 days
Procedure, shortened: as §2

[13] = Postemergence, 125 g ai/ha, 0 to 100 scale, 0 is no effect, 100 is complete control
[14] = Postemergence, 500 g ai/ha, 0 to 100 scale, 0 is no effect, 100 is complete control
[15] = Preemergence, 125 g ai/ha, 0 to 100 scale where 0 is no effect and 100 is complete control
[16] = Preemergence, 500 g ai/ha, 0 to 100 scale (0 no effect, 100 complete control)

SMILES | Plant response rating, Foxtail, Giant [1, 13] | Foxtail, Giant plant response rating [1, 14] | Plant response rating, Foxtail, Giant [1, 15] | Plant response rating, Foxtail, Giant [1, 16] | Plant response rating, Wheat [2, 13] | Wheat plant response rating [2, 14] | Plant response rating, Wheat [2, 15] | Plant response rating, Wheat [2, 16] | Plant response rating, Pigweed [4, 13] | Pigweed plant response rating [4, 14] | Plant response rating, Pigweed [4, 15] | Plant response rating, Pigweed [4, 16] | Plant response rating, Crabgrass, Large [5, 13] | Crabgrass, Large plant response rating [5, 14] | Plant response rating, Crabgrass, Large [5, 15] | Plant response rating, Crabgrass, Large [5, 16] | Plant response rating, Velvetleaf [6, 13] | Velvetleaf plant response rating [6, 14] | Plant response rating, Velvetleaf [6, 15] | Plant response rating, Velvetleaf [6, 16] | other results
CC(C)Oc1nn(-c2ccc(C(F)(F)F)cc2)nc1Cc1ccnc(C(F)(F)F)c1 [Compound 192] | 10 | 20 | 0 | 80 | 0 | 10 | 0 | 0 | 40 | 100 | 10 | 40 | 10 | 30 | 0 | 70 | 20 | 100 | 0 | 0 | Plant response rating, Ducksalad (0 to 100 scale, 0 is no effect, 100 is complete control) ([3]; 250 g ai/ha): 0; Plant response rating, Corn [7, 13]: 10; Corn plant response rating [7, 14]: 30; Plant response rating, Corn [7, 15]: 0; Plant response rating, Corn [7, 16]: 0; Plant response rating, Rice (0 to 100 scale, 0 is no effect, 100 is complete control) ([8]; 250 g ai/ha): 0; Plant response rating, Barnyardgrass [9, 13]: 0; Barnyardgrass plant response rating [9, 14]: 20; Plant response rating, Barnyardgrass [9, 15]: 0; Plant response rating, Barnyardgrass [9, 16]: 0; Plant response rating, Morningglory [10, 13]: 30; Morningglory plant response rating [10, 14]: 70; Plant response rating, Morningglory [10, 15]: 0; Plant response rating, Morningglory [10, 16]: 10; Plant response rating, Sedge, Umbrella (0 to 100 scale, 0 is no effect, 100 is complete control) ([11]; 250 g ai/ha): 0; Plant response rating, Barnyardgrass (0 to 100 scale, 0 is no effect, 100 is complete control) ([12]; 250 g ai/ha): 0
CC(C)COc1nn(-c2ccc(C(F)(F)F)cc2)nc1Cc1ccnc(C(F)(F)F)c1 [Compound 193] | 10 | 20 | 10 | 70 | 0 | 10 | 0 | 0 | 70 | 100 | 0 | 20 | 10 | 30 | 0 | 40 | 30 | 70 | 0 | 0 | Plant response rating, Ducksalad (0 to 100 scale, 0 is no effect, 100 is complete control) ([3]; 125 g ai/ha): 0; Plant response rating, Corn [7, 13]: 10; Corn plant response rating [7, 14]: 30; Plant response rating, Corn [7, 15]: 0; Plant response rating, Corn [7, 16]: 0; Plant response rating, Rice (0 to 100 scale, 0 is no effect, 100 is complete control) ([8]; 125 g ai/ha): 0; Plant response rating, Barnyardgrass [9, 13]: 10; Barnyardgrass plant response rating [9, 14]: 20; Plant response rating, Barnyardgrass [9, 15]: 0; Plant response rating, Barnyardgrass [9, 16]: 0; Plant response rating, Morningglory [10, 13]: 10; Morningglory plant response rating [10, 14]: 40; Plant response rating, Morningglory [10, 15]: 0; Plant response rating, Morningglory [10, 16]: 0; Plant response rating, Sedge, Umbrella (0 to 100 scale, 0 is no effect, 100 is complete control) ([11]; 125 g ai/ha): 0; Plant response rating, Barnyardgrass (0 to 100 scale, 0 is no effect, 100 is complete control) ([12]; 125 g ai/ha): 0
CCCCOc1nn(-c2ccc(C(F)(F)F)cc2)nc1Cc1ccnc(C(F)(F)F)c1 [Compound 194] | 10 | 30 | 0 | 30 | 0 | 20 | 0 | 0 | 40 | 100 | 0 | 10 | 10 | 20 | 0 | 10 | 30 | 50 | 0 | 0 | Plant response rating, Ducksalad (0 to 100 scale, 0 is no effect, 100 is complete control) ([3]; 125 g ai/ha): 0; Plant response rating, Corn [7, 13]: 0; Corn plant response rating [7, 14]: 20; Plant response rating, Corn [7, 15]: 0; Plant response rating, Corn [7, 16]: 0; Plant response rating, Rice (0 to 100 scale, 0 is no effect, 100 is complete control) ([8]; 125 g ai/ha): 0; Plant response rating, Barnyardgrass [9, 13]: 10; Barnyardgrass plant response rating [9, 14]: 20; Plant response rating, Barnyardgrass [9, 15]: 0; Plant response rating, Barnyardgrass [9, 16]: 0; Plant response rating, Morningglory [10, 13]: 10; Morningglory plant response rating [10, 14]: 30; Plant response rating, Morningglory [10, 15]: 0; Plant response rating, Morningglory [10, 16]: 0; Plant response rating, Sedge, Umbrella (0 to 100 scale, 0 is no effect, 100 is complete control) ([11]; 125 g ai/ha): 0; Plant response rating, Barnyardgrass (0 to 100 scale, 0 is no effect, 100 is complete control) ([12]; 125 g ai/ha): 0
CC(=O)Oc1nn(-c2ccc(C(F)(F)F)cc2)nc1Cc1ccnc(C(F)(F)F)c1 [Compound 197] | 10 | 40 | 0 | 0 | 0 | 0 | 0 | 0 | 30 | 70 | 0 | 0 | 10 | 20 | 0 | 0 | 20 | 30 | 0 | 0 | Plant response rating, Ducksalad (0 to 100 scale, 0 is no effect, 100 is complete control) ([3]; 250 g ai/ha): 0; Plant response rating, Corn [7, 13]: 0; Corn plant response rating [7, 14]: 20; Plant response rating, Corn [7, 15]: 0; Plant response rating, Corn [7, 16]: 0; Plant response rating, Rice (0 to 100 scale, 0 is no effect, 100 is complete control) ([8]; 250 g ai/ha): 0; Plant response rating, Barnyardgrass [9, 13]: 0; Barnyardgrass plant response rating [9, 14]: 10; Plant response rating, Barnyardgrass [9, 15]: 0; Plant response rating, Barnyardgrass [9, 16]: 0; Plant response rating, Morningglory [10, 13]: 30; Morningglory plant response rating [10, 14]: 40; Plant response rating, Morningglory [10, 15]: 0; Plant response rating, Morningglory [10, 16]: 0; Plant response rating, Sedge, Umbrella (0 to 100 scale, 0 is no effect, 100 is complete control) ([11]; 250 g ai/ha): 0; Plant response rating, Barnyardgrass (0 to 100 scale, 0 is no effect, 100 is complete control) ([12]; 250 g ai/ha): 0
Oc1nn(-c2ccc(C(F)(F)F)cc2)nc1Cc1ccnc(C(F)(F)F)c1 [Compound 198] | 0 | 10 | 0 | 0 | 0 | 0 | 0 | 0 | 10 | 50 | 0 | 0 | 0 | 10 | 0 | 0 | 10 | 10 | 0 | 0 | Plant response rating, Ducksalad (0 to 100 scale, 0 is no effect, 100 is complete control) ([3]; 250 g ai/ha): 0; Plant response rating, Corn [7, 13]: 0; Corn plant response rating [7, 14]: 10; Plant response rating, Corn [7, 15]: 0; Plant response rating, Corn [7, 16]: 0; Plant response rating, Rice (0 to 100 scale, 0 is no effect, 100 is complete control) ([8]; 250 g ai/ha): 0; Plant response rating, Barnyardgrass [9, 13]: 0; Barnyardgrass plant response rating [9, 14]: 0; Plant response rating, Barnyardgrass [9, 15]: 0; Plant response rating, Barnyardgrass [9, 16]: 0; Plant response rating, Morningglory [10, 13]: 10; Morningglory plant response rating [10, 14]: 20; Plant response rating, Morningglory [10, 15]: 0; Plant response rating, Morningglory [10, 16]: 0; Plant response rating, Sedge, Umbrella (0 to 100 scale, 0 is no effect, 100 is complete control) ([11]; 250 g ai/ha): 0; Plant response rating, Barnyardgrass (0 to 100 scale, 0 is no effect, 100 is complete control) ([12]; 250 g ai/ha): 0

Reference: patent US9302999B2, “Substituted triazoles as herbicides” (E. I. DU PONT DE NEMOURS AND COMPANY, priority 2012, dated 2016)
